This passage reports IC50 results from the COVID Moonshot data (paper PMC7615835).

Several values for one entry are separate records, joined by “and”; a condition that tells them apart may be missing. Equal values may be shown once. Bounds are passed on as bounds.

For this experiment, the target named is SARS-CoV-2 Main Protease (SARS-CoV-2) (UniProt P0DTD1).
In the case of `CN(c1cc(Cl)cc(CC(=O)Nc2cncc3ccccc23)c1)C(c1ccccc1)c1ccccc1`, the IC50 – broadly, the concentration at which inhibition is half-maximal – stood at 2.34 µM. This lies in the single-digit micromolar range.
The figure for `Cc1ccncc1NC(=O)CC(C)C(C)C` (configuration not stated) is over 99 µM; for `O=C(CC1(C(=O)Nc2cncc3ccccc23)CCOc2ccc(Cl)cc21)N1C[C@@H]2C[C@H]1CN2CC(F)F` (stereo in doubt) it is 3.78 µM; for `N#CC1(CS(=O)(=O)N2Cc3ccc(Cl)cc3C(C(=O)Nc3cncc4ccccc34)C2)CCCC1` (configuration not stated) it is 0.079 µM and 0.0884 µM.
The figure for `Cc1cc(N)ncc1NC(=O)C1CCOc2ccc(Cl)cc21` (configuration not stated) is over 99.5 µM.
The figure for `O=C(NCCc1nnc2n1CCC2)c1cc(O)nc2ccccc12` is over 99.5 µM; for `O=C(Cc1cccc(Cl)c1)Nn1nnc2ccccc21` it is 5.8 µM.
`CCS(=O)(=O)c1c(Cl)cccc1CNC(c1cccc(F)c1)C1CC1` (configuration not stated) displayed a half-inhibitory concentration (IC50) of over 99.5 µM.
Regarding `N#CC1(CS(=O)(=O)N2Cc3ccc(Cl)cc3C(C(=O)Nc3cncc4cc(NS(=O)(=O)C5CC5)ccc34)C2)CC1` (configuration not stated), the half-inhibitory concentration (IC50) was under 0.05 µM.
To `COc1ncc(NC(=O)Cc2cccc(Cl)c2)c2ccccc12` belongs over 99.5 µM; to `C=CC(=O)N(c1ccc(C(C)(C)C)cc1)C(C(=O)NCCc1cccc(F)c1)c1cccnc1` (configuration not stated), 2.96 µM.
As to `O=C(Cc1cc(Cl)cc(NC[C@@H](c2cccnc2)N2CCOCC2)c1)Nc1cncc2ccccc12` (stereo in doubt), the 50% inhibitory concentration (IC50) turned out to be 2.58 µM. This IC50 and that of the compound before are within 1.5-fold of each other.
To `Cc1noc(COc2cc(Cl)cc(CC(=O)Nc3cnccc3C)c2)n1` belongs 23.9 µM; to `Cc1cc(C)nc(C#N)n1`, over 99.5 µM; to `O=C(CCl)N1CCN(Cc2cnc(Cc3ccccc3)s2)CC1`, 29.8 µM.
To `O=C1OC(c2cccs2)=N/C1=C\c1ccc(N2CCOCC2)s1` belongs 0.696 µM; to `O=C(Nc1cncc2ccccc12)C1CCOc2c(O)cc(Cl)cc21` (configuration not stated), 0.579 µM.
To `CNC(=O)CN1C[C@@H](C(=O)Nc2cncc3cc(Cl)ccc23)c2cc(Cl)ccc2C1=O` (stereo in doubt) belongs 0.939 µM.
In turn, `Nc1ccccc1-c1nc2ccccc2n1-c1cc(Cl)cc(CC(=O)Nc2cncc3ccccc23)c1` showed an IC50 of 5.09 µM.
To `O=C(Cc1cc(Cl)cc(Nc2nnc(-c3ccncc3)s2)c1)Nc1cncc2ccccc12` belongs 2.19 µM; to `Cc1cc(N2CCC(C)N(Cc3ccccc3)CC2)n2ncnc2n1` (configuration not stated), over 99.5 µM; to `O=C1CC(C(=O)Nc2cncc3ccccc23)c2cc(Br)ccc2N1` (configuration not stated), 1.12 µM.
Compound `Cc1nc2ccc(NS(=O)(=O)c3cccc4nonc34)cc2o1` displayed an IC50 of over 99.5 µM.
Turning to `NCc1cn(CC(=O)N(CC(=O)N2CCNCC2)c2ccc(-c3ccccc3)cc2)nn1`, the 50% inhibitory concentration (IC50) was over 99.5 µM.
In the case of `O=C(Nc1cncc2ccccc12)C(NCC1CC1)c1ccc(Cl)c(Cl)c1` (configuration not stated), the 50% inhibitory concentration (IC50) turned out to be 1.75 µM.
To `CC(=O)N1CCN(CC(=O)Nc2cnccc2C2CC2)CC1` belongs over 99.5 µM.
In turn, `C=CC(=O)N(c1ccc(C(C)(C)C)cc1)C(C(=O)NCCc1cccc(F)c1)c1cncc(C#N)c1` (configuration not stated) gave a half-inhibitory concentration (IC50) of 7.48 µM. This counts as single-digit micromolar.
The figure for `O=c1[nH]c(Cc2cccc(C(F)(F)F)c2)nc2cnccc12` is over 99.5 µM; for `O=C(NCCc1cccc(F)c1)C(c1cccnc1)N(Cc1ccccc1)C(=O)c1ccco1` (configuration not stated) it is over 99.5 µM.
On to `O=c1oc(Nc2ccccc2)nc2ccccc12`, for which the IC50 was determined as 1.57 µM. In other words, the single-digit micromolar range.
The figure for `CCNC(=O)CN1CC2(CCN(c3cncc4ccccc34)C2=O)c2cc(Cl)ccc2S1(=O)=O` (configuration not stated) is 0.275 µM; for `O=C(Cc1cc(Cl)cc(Nc2ccccc2-c2ccccc2)c1)Nc1cncc2ccccc12` it is 1.86 µM; for `O=C(NCc1cccc(Cl)c1)c1cncc2ccccc12` it is 32 µM.
The figure for `Cc1ccc(-c2ccc(C(=O)N3CC[C@H](N)C3)c(F)c2)cc1` (stereo in doubt) is over 99.5 µM; for `O=C(NCCc1cccc(F)c1)C(c1cccnc1)N(C(=O)c1cocn1)C1CCc2cc(F)ccc21` (configuration not stated) it is over 99.5 µM; for `Cc1nc(C)c(S(=O)(=O)NCC2CCCC3CC23)s1` (configuration not stated) it is over 99.5 µM.
To `CCN(CC)CCOc1ccc2cncc(N3CCC4(CN(S(=O)(=O)CC5(C#N)CC5)Cc5ccc(Cl)cc54)C3=O)c2c1` (configuration not stated) belongs 0.183 µM.
`O=C(CCl)N1CC2CC1CN2Cc1cccc(Cl)c1` (configuration not stated) displayed a 50% inhibitory concentration (IC50) of 2.17 µM.
In the case of `COCOc1ccc(N(C(=O)c2cocn2)C(C(=O)NCCc2cccc(F)c2)c2cccnc2)cc1` (configuration not stated), the IC50 came to 13.2 µM.
The figure for `O=C(Cc1cccc(Cl)c1)NC1CCCNC1=O` (configuration not stated) is over 99.5 µM; for `COc1ccccc1OCCC(=O)Nc1cncc2ccccc12` it is 93.6 µM and > 99.5 µM; for `COCCN1CCc2ccc(Cl)cc2C1C(=O)Nc1cncc2ccccc12` (configuration not stated) it is 1.88 µM.
Consider `Cc1cc(C(=O)CCl)c(C)n1NC(=O)c1n[nH]c(=O)c2ccccc12`, for which the IC50 worked out at 6.05 µM.
Compound `O=C(NCCc1cccc(F)c1)C(c1cccnc1)N(C(=O)c1cnc[nH]1)c1ccc2c(c1)CCCS2(=O)=O` (configuration not stated) registered an IC50 of over 99 µM.
To `N#CC1(CS(=O)(=O)NCc2ccc(Cl)cc2CC(=O)Nc2cncc3ccccc23)CC1` belongs 0.133 µM; to `Cc1ccnc(N)c1NC(=O)C1CCOc2ccc(Cl)cc21` (configuration not stated), 69.5 µM.
The figure for `O=C(Cc1cc(Cl)cc(NCc2ccc(I)cc2)c1)Nc1cncc2ccccc12` is 4.37 µM; for `CCCC(C(=O)Nc1cnccc1C)c1cccc(Cl)c1` (configuration not stated) it is 17.9 µM and 16.8 µM.
In the case of `COc1ccc(N(C(=O)c2ccco2)C(C(=O)NCCc2cccc(F)c2)c2cccnc2)cc1` (configuration not stated), the IC50 stood at 30.5 µM.
Take `O=C(NCCc1cccc(F)c1)C(c1cccnc1)N(C(=O)c1cnc[nH]1)c1ccc(OC2CCOC2)cc1` (configuration not stated): the half-inhibitory concentration (IC50) came out at 25.8 µM.
To `O=C(Cc1cc(Cl)cc(N2CCN(c3ccccc3[N+](=O)[O-])CC2)c1)Nc1cncc2ccccc12` belongs 4.01 µM; to `C=CC(=O)N(c1ccc(C(C)(C)C)cc1)[C@H](C(=O)NCCc1cccc(F)c1)c1cccnc1` (stereo in doubt), 2.86 µM.
To `CS(=O)(=O)N1CCN(C(=O)CCl)CC1c1ccccc1` (configuration not stated) belongs 10.6 µM; to `COC(=O)c1c(C)nn(C(=O)c2cccs2)c1-c1snnc1C`, 5.72 µM; to `C[C@@H]1C[C@H](C(=O)Nc2cncc3ccccc23)c2cc(Cl)ccc2O1` (stereo in doubt), 0.679 µM.
The figure for `CCS(=O)(=O)Nc1ccc2c(NC(=O)C3CN(S(=O)(=O)CC4(C#N)CC4)Cc4ccc(Cl)cc43)cncc2c1` (configuration not stated) is under 0.05 µM.
`O=C(CN1CC(C(=O)Nc2cncc3cc(F)ccc23)c2cc(Cl)ccc2C1=O)NCC1CC1` (configuration not stated) showed an IC50 of 0.216 µM. In other words, the sub-micromolar range.
Turning to `CC(C)N1CCCC(N2CCN(c3ccc4nccnc4n3)CC2)C1=O` (configuration not stated), the IC50 was over 99.5 µM.
The figure for `O=C(Cc1cc(Cl)cc(Nc2ccc(OC(F)F)cc2)c1)Nc1cncc2ccccc12` is 1.9 µM.
To `O=C(CCl)N1CCN(C(c2ccccc2)C2CCCCC2)CC1` (configuration not stated) belongs 5.72 µM and 2.98 µM.
With `O=C(Cc1cc(Cl)cc(Nc2ccc(OC(F)(F)F)cc2Cl)c1)Nc1cncc2ccccc12`, the IC50 turned out to be 1.9 µM.
The figure for `O=[N+]([O-])c1cnc(Sc2nnc(-c3ccco3)n2-c2ccc(OCc3ccccc3)cc2)s1` is 7.3 µM; for `O=C(Nc1cncc2ccccc12)C12CCC(O1)c1ccc(Cl)cc12` (configuration not stated) it is 11.1 µM.
The compound `O=C(Cc1cc(Cl)cc(Nc2ccc(C(F)(F)F)cn2)c1)Nc1cncc2ccccc12` yielded a half-maximal inhibitory concentration (IC50) of 3.96 µM.
The compound `CC(C)(C)c1ccc(N(C(=O)c2cocn2)C(C(=O)NCC2CCOC2)c2cccnc2)cc1` (configuration not stated) displayed an IC50 of 5.42 µM.
The figure for `Cc1nnn(NC(=O)Cc2cccc(Cl)c2)c1C` is 14.2 µM; for `O=C(Cc1cc(Cl)cc(Nc2c(F)c(F)cc(F)c2F)c1)Nc1cncc2ccccc12` it is 2.03 µM.
The figure for `Cn1ncc2cc(N(C(=O)c3cnc[nH]3)C(C(=O)NCCc3cccc(F)c3)c3cccnc3)ccc21` (configuration not stated) is over 99 µM; for `Cc1ccncc1NC(=O)CN(C)S(=O)(=O)c1cccc2cccnc12` it is over 99 µM.
In the case of `O=C1CC(N2CC(C(=O)Nc3cncc4ccccc34)c3cc(Cl)ccc3C2=O)CN1` (configuration not stated), the IC50 was 0.681 µM. This lies in the sub-micromolar range.
For `COc1nccnc1C(C(=O)NCCc1cccc(F)c1)N(C(=O)c1cocn1)c1ccc(C(C)(C)C)cc1` (configuration not stated), the IC50 was found to be 94.9 µM.
Compound `CC(C)(C)c1ccc(N(C(=O)c2ncc[nH]2)C(C(=O)NCCc2cccc(F)c2)c2cccnc2)cc1` (configuration not stated) came in with an IC50 of 5.29 µM.
The figure for `O=C(Cc1cccc(Cl)c1)Nc1cncc2c1CCC2` is 5.16 µM.
For `Cc1ccc(NC2=C(c3ccccc3)C(=O)N(Cc3cccnc3)C2=O)cc1Cl`, the concentration for half-maximal inhibition (IC50) was over 99.5 µM.
Compound `Cn1ncc(NC(=O)C2CCOc3ccc(Cl)cc32)c1C(F)F` (configuration not stated) returned an IC50 of over 99.5 µM.
`O=C(NCCc1cccc(F)c1)C(c1cccnc1)N(C(=O)c1cocn1)C1CC2CCCC2C1` (configuration not stated): the IC50 is over 99.5 µM.
To `O=C(Cc1cc(Cl)cc(N2CCN(Cc3cccc(F)c3)CC2)c1)Nc1cncc2ccccc12` belongs 3.28 µM; to `COC(=O)C(C(=O)Nc1cnccc1C)c1cccc(Cl)c1` (configuration not stated), 23.7 µM.
Turning to `CCN1CCCC1C1CCCN1C(=O)CCc1c[nH]c2ccccc12` (configuration not stated), the concentration for half-maximal inhibition (IC50) was over 99.5 µM.
Regarding `O=C(CN1CC(C(=O)Nc2cncc3ccccc23)c2cc(Cl)ccc2C1=O)NCC1CC1` (configuration not stated), the half-maximal inhibitory concentration (IC50) was 0.0726 µM and 0.122 µM.
With `C=CC(=O)N(Cc1ccccc1Cl)C(C(=O)NC(C)(C)C)c1cccnc1` (configuration not stated), the IC50 was over 99.5 µM.
The figure for `Cc1ccncc1NC(=O)CN1CCCCC1` is over 99.5 µM; for `CCOC(=O)CCCNC(=O)C(c1cccnc1)N(C(=O)c1cocn1)c1ccc(C(C)(C)C)cc1` (configuration not stated) it is 6.24 µM; for `N#Cc1ccc(CN2CCC(C3CCNC3)CC2)cc1` (configuration not stated) it is 2.06 µM.
To `CCCOc1cc(Cl)cc2c1OCCC2C(=O)Nc1cncc2ccccc12` (configuration not stated) belongs 5.63 µM; to `O=C(Cn1ccc(=O)[nH]c1=O)OCc1ccc(-c2ccccc2)cc1`, over 99.5 µM.
The figure for `O=C(Cc1cc(Cl)cc(NC(c2ccccc2)c2ccccc2)c1)Nc1cncc2ccccc12` is 3.36 µM; for `O=C(Cc1cccc(Cl)c1)Nc1[nH]nc2cccc(F)c12` it is over 99.5 µM; for `O=C(Cn1ccc(=O)[nH]c1=O)N1CCN(c2ccccc2O)CC1` it is over 99.5 µM.
In the case of `O=C(Nc1c[nH]c(=O)c2ccccc12)C1CCOc2ccc(Cl)cc21` (configuration not stated), the IC50 was over 99.5 µM.
`Cc1c(C(=O)N2CCC(C3CCNC3)CC2)cccc1-c1ccccn1` (configuration not stated) had a half-maximal inhibitory concentration (IC50) of over 99.5 µM.
Compound `Cc1ccncc1NC(=O)Cc1ccccc1N` came in with a half-inhibitory concentration (IC50) of over 99.5 µM.
